# Source: article PMC9501280, “Anti-Inflammatory Activity of Soluble Epoxide Hydrolase Inhibitors Based on Selenoureas Bearing an Adamantane Moiety” (International Journal of Molecular Sciences, 2022)
# How the values were obtained:
# [1] = system: human fibroblast cells (MRC-5); test: MTT test with human fibroblast cells; type: cell-based; settings: MRC5, 72 h, read-out: EC50 ± SEM, MRC-5
# Description: The studied compounds were added in concentrations of 1, 3, 6, 12, 25, 50, and 100 μM.
# Human fibroblast cells (MRC-5) were used in this study. The cells were cultured in the DMEM medium that contained 10% embryonic calf serum in a CO2 incubator at 37 °C. The tested compounds were dissolved in DMSO and added to the cellular culture at the required concentrations. Three wells were used for each concentration. The cells that were incubated without the compounds were used as a negative control, and doxorubicin was used as the positive one. Cells were placed on 96-well microliter plates and cultivated at 37 °C in 5% CO2/95% air for 72 h. The cell viability was assessed through an MTT (3-(4,5-dimethylthiazol-2-yl)-2,5-phenyl-2H-tetrazolium bromide) conversion assay. A total of 1% MTT was added to each well. Three hours later, isopropanol was added and mixed for 15 min. Optical density (OD) of the samples was measured on a ThermoFischer multi-well spectrophotometer at a wavelength of 450 nm. […] The experimental results are given as average values obtained from three independently conducted experiments.
# [2] = system: C57bl/6j peritoneal macrophages; test: MTT cytotoxicity on peritoneal macrophages; type: cell-based, mice; settings: Mus musculus, Peritoneal macrophage, read-out: EC50 ± SEM, C57bl/6j
# Description: (§1) Peritoneal macrophages (PM) were isolated from the peritoneal exudate of 30 male C57bl/6j mice. To accumulate PM, 1 mL of 3% peptone solution was injected intraperitoneally. After 3 days, the mice were euthanized by cervical dislocation. Cells of peritoneal exudate were obtained by aseptic washing of the abdominal cavity with 5 mL of sterile Hanks’s solution (+4–6 °C) without calcium and magnesium ions. The total number and viability of cells were assessed in a Goryaev counting chamber (Russia) with a 0.4% trypan blue staining (Sigma-Aldrich, St. Louis, MO, USA). The cell concentration was adjusted to 1.0 × 10^6 cells/mL in DMEM (Gibco) supplemented with 2 mM L-glutamine (Gibco), 10% heat-inactivated fetal bovine serum (BioClot, Passau, Germany), 100 U/mL penicillin and […] streptomycin (Gibco) and plated 200 μL/well in 96-well transparent plates (SPL Life Sciences Co., Ltd., Pochon, Korea). After 2 h at 37 °C in a humidified atmosphere with 5% CO2, wells were washed to remove nonadherent cells. After 24 h of incubation, 20 μL of the supernatants were substituted with 20 μL of solutions of the test compounds, followed with E. coli O127:B8 LPS (100 ng/mL final concentration) after 30 min. Experiments were run in 3 independent replicates.
# (§2) The activity of lactate dehydrogenase (LDH) in a cell culture medium served as a marker of membrane permeability and cell death. Aliquots of supernatants were taken after 24 h of inoculation with test compounds, mixed with 250 μL of […] NADH solution in 54 mM phosphate-buffered saline (pH 7.5). Then, 25 μL of a 6.48 mM pyruvate solution was added to the mixture. The optical density was followed at a wavelength of 340 nm for 20 min. The MTT test was performed 24 h after the incubation of cells with the tested compounds. Briefly, 20 μL of MTT solution was added to each well and incubated at 37 °C in a humidified atmosphere containing 5% CO2 for 4 h. The culture medium was aspirated, the cells were lysed and formazan crystals dissolved in 150 μL of DMSO. The plates were shaken at room temperature for 10 min, and the optical density was measured in a microplate reader Infinite M200 PRO (Tecan Group Ltd., Männedorf, Switzerland) at a wavelength of 565 nm.
# [3] = MTT cytotoxicity on peritoneal macrophages; type: cell-based, mice; settings: male, C57bl/6j, mouse; 24 h incubation; read-out: MTT CC50 ± SE
# Description: as §1, §2
# [4] = LDH release cytotoxicity on peritoneal macrophages; type: cell-based, mice; settings: male, C57bl/6j, mouse; 24 h incubation; read-out: LDH CC50 ± SE
# Description: as §1
# as §2, with “Briefly, 20 μL of MTT solution was added to each well and incubated at 37 °C in a humidified atmosphere containing 5% CO2 for 4 h. The culture medium was aspirated, the cells were lysed and formazan crystals dissolved in 150 μL of DMSO.” left out
# [5] = system: E. coli PQ37; test: SOS chromotest; type: cell-based
# Description: For the final safety check of selenoureas, the SOS chromotest was carried out. […] The results are presented as the mean value of induction factor I (c) ± SEM based on the results of three independent experiments, each of which included three replicates (Table 5).
# The SOS chromotest was carried out according to the standard procedure, with recommended additions. The E. coli PQ37 strain was provided by P. Quillardet (Paris, France). The test compounds were dissolved in dimethyl sulfoxide (DMSO) (also used as a negative control) and added to the bacterial medium in the required concentrations; the concentration of the injected solutions was 1% by volume.
compound,measurement,setting,value
"[Se]=C(Nc1ccccc1)NC12CC3CC(CC(C3)C1)C2 [4a, 1-(Adamantan-1-yl)-3-phenylselenourea]",EC50,[1],3.38 ± 0.49 µM
same,EC50,[2],7.5 ± 1.9 µM
same,CC50 at 24 h,[3],7.5 ± 1.9 µM
same,CC50 at 24 h,[4],29.4 ± 8.5 µM
same,genotoxic activity (in words),[5]; SOS chromotest / lux-biosensors,does not exhibit genotoxic properties
same,"I(c) ± SE, 10 µM","[5]; induction factor, compound 10 µM",1.03 ± 0.13
same,"I(c) ± SE, 25 µM","[5]; induction factor, compound 25 µM",1.09 ± 0.14
same,"I(c) ± SE, 50 µM","[5]; induction factor, compound 50 µM",1 ± 0.15
same,"I(c) ± SE, 100 µM","[5]; induction factor, compound 100 µM",1.08 ± 0.09
